According to US10709724B2, “Methods of treating mitochondrial dysfunction” (Ecole Polytechnique Federale de Lausanne (EPFL), priority 2011, dated 2020):
Where “and” joins values, the source holds several entries; their conditions need not be identical. Equal entries are not always repeated. Entries after “also recorded” stand apart in the source; their conditions may differ.

Assays:
C. elegans = assay: Worm lifespan analysis; type: in vivo; conditions: for variation compared to control (%): vs N2 + water
Protocol: Worm Lifespan Analysis Lifespan tests were performed as described in Mouchiroud et al (L. Mouchiroud et al., Pyruvate imbalance mediates metabolic reprogramming and mimics lifespan extension by dietary restriction in Caenorhabditis elegans. Aging Cell 10, 39 (2011)). Briefly, 60-100 animals were used per conditions and scored every other day. All lifespan experiments were performed at 20° C. […] Animals were exposed to compounds during the full life from eggs until death. To ensure a permanent exposure to the compound, plates were changed twice a week. All the compounds used in this study were dissolved in a water stock solution.

SIRT3 = assay: NR in SIRT3−/− mouse embryonic fibroblasts; type: cell-based; conditions: 0.5 mM, 24 hrs
Protocol: (§1) Cell Culture, Transfection, Adenoviral Infection and Mitochondrial Characterization. HEK293T, MEF and C2C12 cells were cultured in DMEM (4.5 g/l glucose, 10% FCS). PARP-1^+/+ and PARP-1^−/− MEFs were prepared as described in (Menissier-de Murcia et al., 1997). SIRT1 and MEFs were kindly provided by Fred Alt (Chea et al., 2005). SIRT3 MER were established according to standard techniques from conditional SERT3^−/− mice. […] Mitochondrial charge determination was performed as described (Bai et al., 2001) and DNA strand breaks were quantified by TUNEL assays according to the manufacturer's instructions (Millipore).
(§2) Immunoprecipitation, SDS-PAGE, Western Blotting. […] Reactions were developed by enhanced chemiluminescence (Amersham, Little Chalfont, UK), PGC-1α, FOXO1 and Ndufa9 acetylation levels were analyzed by immunoprecipitation from cellular or nuclear lysates of tissues with anti-PGC-1α (Millipore), anti-FOXO1 (Cell Signaling, Danvers, Mass., USA) and anti-Ndufa9 (Abcam) antibody followed by Western blot using an acetyl-lysine antibody (Cell Signaling) that was normalized to total PGC-1a/FOXO1/Ndufa9 levels (Lagouge et al., 2006; Rodgers et al., 2005). […] All blots were quantified by densitometry using ImageJ software. […]

SIRT1 [1] = assay: SIRT1 activity (FOXO1 acetylation, target genes) in NR-treated HEK293T cells; type: cell-based, human
Protocol: mRNA and mtDNA Analysis. Total RNA was prepared using TRIzol (Invitrogen) according to the manufacturer's instructions. RNA was treated with DNase, and 2 μg of RNA was used for reverse transcription (RT). cDNA was purified on QIAquick PCR cleanup columns (Qiagen, Valencia, Calif., USA). 50× diluted cDNA was used for RT-quantitative PCR (RT-VCR) VCR) reactions (Bai et al., 2007). The RT-qPCR reactions were performed using the Light-Cycler system (Roche Applied Science) and a qPCR Supermix (Qiagen) with the primers for mice summarized in Table 1 and 4, and with the primers for worms summarized on Table 7. mtDNA quantification was performed as described (Lagouge et al., 2006) with the primers indicated in Table 2 and 5.
(§3) Immunoprecipitation, SDS-PAGE, Western Blotting. Cells were lysed in lysis buffer (50 mM Tris, […], EDTA 1 mM, NP40 1%, nicotinamide 5 mM, Na-butyrate 1 in M, protease inhibitors pH7.4). Proteins were separated by SDS-PAGE and transferred onto nitrocellulose membranes. The origin of the primary and secondary antibodies used can be found as supplemental experimental procedures. Reactions were developed by enhanced chemiluminescence (Amersham, Little Chalfont, UK), PGC-1α, FOXO1 and Ndufa9 acetylation levels were analyzed by immunoprecipitation from cellular or nuclear lysates of tissues with anti-PGC-1α (Millipore), anti-FOXO1 (Cell Signaling, Danvers, Mass., USA) and anti-Ndufa9 (Abcam) antibody followed by Western blot using an acetyl-lysine antibody (Cell Signaling) that was normalized to total PGC-1a/FOXO1/Ndufa9 levels (Lagouge et al., 2006; Rodgers et al., 2005). In HEK293T cells HA-tagged PGC-1α was overexpressed and was immunoprecipitated using an anti-HA. In C2C12 myotubes, FLAG-HA tagged PGC-1α was introduced through adenoviral delivery 2 days before treatments, then IP was performed using anti-FLAG antibody and samples were processed as described. All blots were quantified by densitometry using ImageJ software. Poly(ADP-Ribose) detection was performed as previously described with slight modifications (Bai et al., PARP-1 inhibition increases mitochondrial metabolism through SIRT1 activation. Cell Metab 13, 461-468. (2011)) Briefly, PAR was detected by using a monoclonal anti-PAR antibody (Alexis, Lausanne Switzerland) by Western blotting of total protein lysates, using either […] of total worm protein lysates, […] of liver protein lysate or 200 g of muscle total protein extracts. PGC-1 acetylation was determined using PGC-1 immunoprecipitates from 2 mg of protein extracts, as described in Canto et al. (Canto et al., AMPK regulates energy expenditure by modulating NAD+ metabolism and SIRT1 activity. Nature 458, 1056 (2009)).

SIRT1 MEF cells = assay: PJ34 in SIRT1−/− MEFs; type: cell-based, mice
Protocol: as §1, §2

SIRT1 [2] = assay: SIRT1 activity (PGC-1α acetylation) and SIRT1 protein in C2C12 myotubes; type: cell-based
Protocol: as §3

NC(=O)c1ccc[n+]([C@@H]2O[C@H](CO)[C@@H](O)[C@H]2O)c1 [NR, nicotinamide riboside]
mean lifespan ± SE (C. elegans; N2, 200 nM): 21.1 ± 0.88 days | variation compared to control (%) (C. elegans; N2, 200 nM): +17.9% | mean lifespan ± SE (C. elegans; N2, 500 nM): 23.5 ± 0.56 days and 24.9 ± 0.68 days and 20.6 ± 1.02 days | mean lifespan ± SE (C. elegans; N2, 1000 nM): 20.0 ± 0.89 days | variation compared to control (%) (C. elegans; N2, 1000 nM): +11.7% | lifespan in daf-16 mutant worms (C. elegans; daf-16(mu86) mutant worms): completely abolished; also recorded: daf-16-dependent | mean lifespan ± SE (C. elegans; daf-16(mu86), 500 nM): 19.1 ± 0.51 days | variation compared to control (%) (C. elegans; daf-16(mu86), 500 nM): −7.8% | lifespan in sir-2.1(ok434) mutant / sir-2.1 dependence (C. elegans; sir-2.1(ok434) mutant worms): sir-2.1-dependent fashion; also recorded: sir-2-dependent manner | mean lifespan ± SE (C. elegans; sir-2.1(ok434), 500 nM): 23.2 ± 0.61 days | variation compared to control (%) (C. elegans; sir-2.1(ok434), 500 nM): +12.0% | lifespan (C. elegans; wild type N2 worms): extended lifespan; also recorded: increases | NAD+ levels in SIRT3−/− MEFs (SIRT3): increased to similar levels as in SIRT3^+/+ MEFs | acetylation status of SOD2 in SIRT3−/− MEFs (SIRT3): unable to decrease the acetylation status of SOD2 | expression of FOXO1 target genes (Gadd45, Catalase, Sod1, Sod2) (SIRT1 [1]): higher expression of target genes | Sod2 expression (SIRT1 [1]; 0.5 mM, 24 hrs): higher expression of a FOXO1 target gene, Sod2 | Ucp2 mRNA levels (SIRT1 [1]; 0.5 mM, 24 hrs): decreased Ucp2 mRNA levels | Ucp2 expression with Sirt1 knock-down (SIRT1 [1]; 0.5 mM, 24 hrs, SIRT1 siRNAs): knocking down Sirt1 prevented the action of NR on Ucp2 expression | intracellular NAD+ content with SIRT1 knock-down (SIRT1 [1]; 0.5 mM, 24 hrs, SIRT1 siRNAs): did not compromise the ability of NR to increase intracellular NAD^+ content | Sod2 expression with Foxo1 or Sirt1 knockdown (SIRT1 [1]; 0.5 mM, 24 hrs, siRNAs): prevented by the knockdown of either Foxo1 or Sirt1 | SIRT1 protein levels (SIRT1 [1]; 24 hrs): lack of changes in SIRT1 protein levels | acetylation of FOXO1 (SIRT1 [1]; 24 hrs, SIRT1-dependent): dose-dependently decreased the acetylation of FOXO1

CN(C)CC(=O)Nc1ccc2[nH]c(=O)c3ccccc3c2c1 [PJ34]
mitochondrial gene expression (SIRT1 MEF cells; SIRT1 MEF cells): largely blunted | PGC-1α acetylation levels (SIRT1 MEF cells; SIRT1−/− MEFs): totally unable to decrease PGC-1α acetylation levels | SIRT1 protein levels (SIRT1 [2]; 24 hrs): did not change SIRT1 protein levels | PGC-1α acetylation (SIRT1 activation) (SIRT1 [2]; 24 hrs, dose-dependent (FIG. 6F)): deacetylation of PGC-1α | SIRT1 function (PGC-1α acetylation) during H2O2 treatment (SIRT1 [2]; H2O2 500 μM, 6 hrs, PJ34 1 μM): enhanced SIRT1 function | SIRT1 protein levels during H2O2 treatment (SIRT1 [2]; H2O2 500 μM, 6 hrs, PJ34 1 μM): SIRT1 protein levels did not change
